One test concerns PC-3 cells. Description: Cell migration scratch assay, PC-3 cells. It counts as cell-based, human. The settings on record: DHMBA 1, 10, 100, or 1000 μM, 48 hours. The protocol: The migration of the prostate cancer PC-3 and DU-145 cells was examined using a scratch assay. The PC-3 and DU-145 cells (the cell number of 2×10^5/in 1 ml of a culture fluid per hole using a 24-hole plate) were cultured in a DMEM culture fluid containing 10% of FBS, 1% of P/S, and 1% of fungizone under 5% of CO2, at 37° C., for 48 hours, and a straight line scratch was performed using a pipette tip (200 μl) when the cells reached confluence. Free cells were washed with PBS to be removed, the above-described culture fluid (containing 0.1, 1, 10, 100, or 1000 μM of the DHMBA) was added, and the cells were cultured for 48 hours. After the culture, intervals of cell-free parts were measured.
The PC-3 and DU-145 cells (the cell number of 2× 10^5/1 ml of a culture fluid per hole using a 24-hole plate) were cultured under 5% of CO2, at 37° C., for 48 hours in a DMEM culture fluid containing 10% of FBS, 1% of P/S, and 1% of fungizone, and a straight line scratch was performed using a pipette tip (200 μl) when the cells reached confluence. Free cells were washed with PBS to be removed, the above-described culture fluid (containing 0.1, 1, 10, 100, or 1000 μM of the DHMBA) was added, and the cells were cultured for 48 hours. After the culture, intervals of cell-free parts were measured. […]

The subject of a further test is DU-145 cells. Put plainly: Colony formation of DU-145 cells. Format: cell-based, human. The settings on record: DHMBA 1 or 10 μM, nine days. The protocol: The PC-3 and DU-145 cells (1×10^3/in 2 ml of a culture fluid per hole using a six-hole plate) were cultured in a DMEM culture fluid (containing 10% of FBS, 1% of P/S, and 1% of fungizone) containing the DHMBA (1 and 10 μM) under 5% of CO2, at 37° C., for nine days. After the culture, the culture fluid was removed, the cells were washed twice with PBS, 95% of methanol (0.5 ml) was added, and the cells were fixed for 20 minutes. After the fixation, each well of a culture dish was washed four times with PBS (1 ml), and after that 0.5% of crystal violet (0.5 ml) was added, and the product was left for two hours at room temperature for staining. After the stain solution was washed to be removed, drying was performed, and after that colonies containing 50 or more cells were counted by a microscope (Olympus MTV-3, Olympus Corporation, Tokyo, Japan).
FIG. 2(A) is a drawing in which the DU-145 cells (1×10^3 cells/per well of a six-well plate) were cultured under 5% of CO2, at 37° C., for nine days in a DMEM culture fluid (containing 10% of FBS, 1% of P/S, and 1% of fungizone) containing the DHMBA (1 or 10 μM).
FIG. 2(B) is a diagram of counting the number of colonies.

As for `COc1c(O)cc(CO)cc1O` [DHMBA, 3,5-dihydroxy-4-methoxybenzyl alcohol], the migration entry with PC-3 cells is recorded as “significantly inhibited”. Also, the colony formation entry in the test with DU-145 cells is “significantly inhibited”.

The record behind these values is patent US20240350430A1, “GROWTH INHIBITOR OF METASTATIC HUMAN PROSTATE CANCER CELLS” (Watanabe Oyster Laboratory Co., Ltd., priority 2021, published 2024).
